Data from patent US20260165323A1, “USE OF STROBILURIN TYPE COMPOUNDS FOR COMBATING PHYTOPATHOGENIC FUNGI CONTAINING AN AMINO ACID SUBSTITUTION F129L IN THE MITOCHONDRIAL CYTOCHROME B PROTEIN CONFERRING RESISTANCE TO QO […]” (priority 2022, published 2026).

Columns and labels:
[1] = test system: Botrytis cinerea (BOTRCI); test: Use example 6: microtest, growth of Botrytis cinerea (BOTRCI); type: cell-based; details: relative growth vs compound-free control (100%); for Growth (%) BOTRCI Use Ex. 6: 0.5 ppm, 7 days; for Growth at 8 ppm (%) BOTRCI Use Ex. 6 / Growth at 125 ppm (%) BOTRCI Use Ex. 6: 7 days after inoculation
Protocol: (§1) The active compounds were formulated separately as a stock solution having a concentration of 10000 ppm in dimethyl sulfoxide. The stock solutions were mixed according to the ratio, pipetted onto a micro titer plate (MTP) and diluted with water to the stated concentrations. A spore suspension of one of the following fungal plant pathogens in aqueous bio malt solution • was then added for the respective use example: • Use example 5: Alternaria solani (ALTESO) • Use example 6: Botrytis cinerea (BOTRCI) • Use example 7: Cercospora sojina (CERCSO) • Use example 8: Colletotrichum orbiculare (COLLLA) • Use example 9: Leptosphaeria nodorum (LEPTNO) • Use example 10: Drechslera teres (PYRNTE) containing the amino acid substitution F129L in the mitochondrial cytochrome b protein conferring resistance to Qo inhibitors • Use example 11: Sclerotinia sclerotiorum (SCLESC), solute with ultrasonic from a filter membrane
(§2) The plates were placed in a water vapor-saturated chamber at a temperature of 18° C. Using an absorption photometer, the MTPs were measured at 405 nm 7 days after the inoculation.
(§3) The measured parameters were compared to the growth of the active compound-free control variant (100%) and the fungus-free blank value to determine the relative growth in % of the pathogens in the respective active compounds.

[2] = test system: Cercospora sojina (CERCSO); test: Use example 7: microtest, growth of Cercospora sojina (CERCSO); type: cell-based; details: relative growth vs compound-free control (100%); for Growth (%) CERCSO Use Ex. 7: 7 days; for Growth at 8 ppm (%) CERCSO Use ex. 7: 7 days after inoculation
Protocol: as §1, §2, §3

[3] = test system: Drechslera teres (PYRNTE) containing the amino acid substitution F129L in the mitochondrial cytochrome b protein; test: Use example 10: microtest, growth of Drechslera teres (PYRNTE) F129L; type: cell-based; details: 125 ppm, relative growth vs compound-free control (100%), 7 days; for Growth (%) PYRNTE F129L Use Ex. 10: Table 7
Protocol: as §1, §2, §3

[4] = test system: Colletotrichum orbiculare (COLLLA); test: Use example 8: microtest, growth of Colletotrichum orbiculare (COLLLA); type: cell-based; details: relative growth vs compound-free control (100%), 7 days; for Growth (%) COLLLA Use Ex. 8: 125 ppm
Protocol: as §1, §2, §3

[5] = test system: Leptosphaeria nodorum (LEPTNO); test: Use example 9: microtest, growth of Leptosphaeria nodorum (LEPTNO); type: cell-based; details: relative growth vs compound-free control (100%); for Growth (%) LEPTNO Use Ex. 9: 125 ppm, 7 days, Table 9; for Growth at 125 ppm (%) LEPTNO Use Ex. 9: 7 days after inoculation
Protocol: as §1, §2, §3

[6] = test system: Phakopsora pachyrhizi containing the amino acid substitution F129L in the mitochondrial cytochrome b protein; test: Use Example 1: protective control of soybean rust on soybeans (PHAKPA P2); type: in vivo; details: inoculated 2 days after spraying, % diseased leaf area
In short: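 Soybean seedling leaves sprayed to run-off with compound in acetone/DMSO–Wettol–water at the stated concentration, kept 2 days at 23-27° C, then inoculated with Qo-inhibitor-resistant F129L P. pachyrhizi. After 24 h at ~95% RH, 20-24° C, and up to 14 days in greenhouse, % diseased leaf area scored visually.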

[7] = test system: Phakopsora pachyrhizi containing the amino acid substitution F129L in the mitochondrial cytochrome b protein; test: Use Example 2: protective control of soybean rust on soybeans (PHAKPA P6); type: in vivo; details: inoculated six days after spraying, % diseased leaf area
In short: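 Compound in acetone and/or DMSO with Wettol (99:1), diluted with water, was sprayed to run-off on potted soybean seedlings. After six days at 23–27°C and 60–80% RH, plants were inoculated with a Qo-resistant F129L strain and held 24 h at about 95% RH. Percent diseased leaf area was scored visually after up to 14 days.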

[8] = test system: Puccinia recondita; test: Use Example 3: curative control of brown rust on wheat (PUCCRT K4); type: in vivo; details: % diseased leaf area
In short: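 Wheat seedlings inoculated with Puccinia recondita spores, held 24 h at 95–99% RH, 20–24° C in dark, then 3 days in greenhouse before spraying to run-off (curative). Compound in acetone/DMSO–Wettol–water. After 5–7 further days at 20–24° C, 65–70% RH, % diseased leaf area scored visually.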

[9] = test system: Puccinia recondita; test: Use Example 4: preventative control of brown rust on wheat (PUCCRT P7); type: in vivo; details: inoculated seven days after spraying, % diseased leaf area
In short: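 First two leaves of potted wheat seedlings sprayed to run-off with compound in acetone/DMSO–emulsifier–water, then inoculated with Puccinia recondita spores seven days later. Plants held 24 h dark at 95–99% RH and 20–24 °C, then 9–11 days in greenhouse; diseased leaf area (%) scored visually.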

[10] = test system: Alternaria solani (ALTESO); test: Use example 5: microtest, growth of Alternaria solani (ALTESO); type: cell-based; details: 0.125 ppm; relative growth vs compound-free control (100%), 7 days after inoculation
Protocol: as §1, §2, §3

[11] = test system: Sclerotinia sclerotiorum (SCLESC); test: Use example 11: microtest, growth of Sclerotinia sclerotiorum (SCLESC); type: cell-based; details: relative growth vs compound-free control (100%), 7 days after inoculation; for Growth (%) SCLESC Use ex. 11: 8 ppm
Protocol: as §1, §2, §3

COC/C(=N\OCc1c(C)cccc1/C(=N\OC)C(=O)OC)c1ccc(Cl)cc1 [I.1-A-83, reference compound]
Growth (%) BOTRCI Use Ex. 6 [1]: 53%
Growth (%) CERCSO Use Ex. 7 ([2]; 31 ppm): 83%
Growth (%) PYRNTE F129L Use Ex. 10 [3]: 23%

CO/C=C(/C(=O)OC)c1cccc(C)c1CO/N=C(\COC)c1c(F)cc(F)cc1F [I.2-A-43860, reference compound]
Growth (%) CERCSO Use Ex. 7 ([2]; 125 ppm, Table 9): 90%
Growth (%) COLLLA Use Ex. 8 [4]: 43%
Growth (%) LEPTNO Use Ex. 9 [5]: 64%

COC/C(=N\OCc1c(Cl)cccc1/C(=N\OC)C(=O)OC)c1ccc(F)cc1 [compound 1, Methyl (2E)-2-[3-chloro-2-[[(Z)-[1-(4-fluorophenyl)-2-methoxy-ethylidene]amino]oxymethyl]phenyl]-2-methoxyimino-acetate]
% PHAKPA (F129L) Disease level P2 at 4 ppm [6]: 20%
% PHAKPA (F129L) Disease level P2 at 16 ppm [6]: 1%
% PHAKPA (F129L) Disease level P6 at 4 ppm [7]: 57%
% PHAKPA (F129L) Disease level P6 at 16 ppm [7]: 11%
% PUCCRT Disease level K4 at 4 ppm [8]: 87%
% PUCCRT Disease level K4 at 16 ppm [8]: 77%
% PUCCRT Disease level P7 at 4 ppm [9]: 53%
% PUCCRT Disease level P7 at 16 ppm [9]: 23%
Growth (%) ALTESO Use ex. 5 [10]: 73%
Growth (%) SCLESC Use ex. 11 [11]: 72%

CNC(=O)/C(=N/OC)c1cccc(Cl)c1CO/N=C(\COC)c1c(F)cc(F)cc1F [compound 31]
% PHAKPA (F129L) Disease level P2 at 4 ppm [6]: 0%
% PHAKPA (F129L) Disease level P2 at 16 ppm [6]: 0%
% PHAKPA (F129L) Disease level P6 at 4 ppm [7]: 3%
% PHAKPA (F129L) Disease level P6 at 16 ppm [7]: 0%
% PUCCRT Disease level K4 at 4 ppm [8]: 40%
% PUCCRT Disease level K4 at 16 ppm [8]: 7%
% PUCCRT Disease level P7 at 4 ppm [9]: 17%
% PUCCRT Disease level P7 at 16 ppm [9]: 4%
Growth (%) COLLLA Use ex. 8 ([4]; 8 ppm): 34%
Growth (%) PYRNTE F129L Use ex. 10 ([3]; Table 13): 21%

COC/C(=N\OCc1c(Cl)cccc1/C(=N\OC)C(=O)OC)c1ccc(Cl)cc1 [compound 34]
% PHAKPA (F129L) Disease level P2 at 4 ppm [6]: 68%
% PHAKPA (F129L) Disease level P2 at 16 ppm [6]: 22%
% PHAKPA (F129L) Disease level P6 at 4 ppm [7]: 80%
% PHAKPA (F129L) Disease level P6 at 16 ppm [7]: 25%
% PUCCRT Disease level K4 at 4 ppm [8]: 75%
% PUCCRT Disease level K4 at 16 ppm [8]: 70%
% PUCCRT Disease level P7 at 4 ppm [9]: 48%
% PUCCRT Disease level P7 at 16 ppm [9]: 9%
Growth (%) BOTRCI Use Ex. 6 [1]: 35%
Growth (%) CERCSO Use Ex. 7 ([2]; 31 ppm): 56%
Growth (%) PYRNTE F129L Use Ex. 10 [3]: 4%

CNC(=O)/C(=N/OC)c1cccc(Cl)c1CO/N=C(\COC)c1cccc(C(F)(F)F)c1 [compound 56]
% PHAKPA (F129L) Disease level P2 at 4 ppm [6]: 15%
% PHAKPA (F129L) Disease level P2 at 16 ppm [6]: 0%
% PHAKPA (F129L) Disease level P6 at 4 ppm [7]: 23%
% PHAKPA (F129L) Disease level P6 at 16 ppm [7]: 0%
% PUCCRT Disease level K4 at 4 ppm [8]: 8%
% PUCCRT Disease level K4 at 16 ppm [8]: 0%
% PUCCRT Disease level P7 at 4 ppm [9]: 2%
% PUCCRT Disease level P7 at 16 ppm [9]: 2%
Growth at 8 ppm (%) BOTRCI Use Ex. 6 [1]: 64%
Growth at 8 ppm (%) CERCSO Use ex. 7 [2]: 13%

COC/C(=N\OCc1c(Br)cccc1/C(=N\OC)C(=O)OC)c1ccccc1 [compound 57]
% PHAKPA (F129L) Disease level P2 at 4 ppm [6]: 41%
% PHAKPA (F129L) Disease level P2 at 16 ppm [6]: 3%
% PHAKPA (F129L) Disease level P6 at 4 ppm [7]: 48%
% PHAKPA (F129L) Disease level P6 at 16 ppm [7]: 21%
% PUCCRT Disease level P7 at 4 ppm [9]: 60%
% PUCCRT Disease level P7 at 16 ppm [9]: 13%
Growth at 125 ppm (%) BOTRCI Use Ex. 6 [1]: 0%
Growth at 125 ppm (%) LEPTNO Use Ex. 9 [5]: 1%
Growth at 125 ppm (%) SCLESC Use Ex. 11 [11]: 2%

CO/C=C(/C(=O)OC)c1cccc(Br)c1CO/N=C(\COC)c1c(F)cc(F)cc1F [compound 58]
% PHAKPA (F129L) Disease level P2 at 4 ppm [6]: 2%
% PHAKPA (F129L) Disease level P2 at 16 ppm [6]: 0%
% PHAKPA (F129L) Disease level P6 at 4 ppm [7]: 0%
% PHAKPA (F129L) Disease level P6 at 16 ppm [7]: 0%
% PUCCRT Disease level K4 at 4 ppm [8]: 27%
% PUCCRT Disease level K4 at 16 ppm [8]: 15%
% PUCCRT Disease level P7 at 4 ppm [9]: 57%
% PUCCRT Disease level P7 at 16 ppm [9]: 30%
Growth (%) CERCSO Use Ex. 7 ([2]; 125 ppm, Table 9): 63%
Growth (%) COLLLA Use Ex. 8 [4]: 26%
Growth (%) LEPTNO Use Ex. 9 [5]: 47%

CNC(=O)/C(=N/OC)c1cccc(C)c1CO/N=C(\COC)c1cccc(C(F)(F)F)c1 [reference compound]
Growth at 8 ppm (%) BOTRCI Use Ex. 6 [1]: 78%
Growth at 8 ppm (%) CERCSO Use ex. 7 [2]: 28%

CO/N=C(/C(=O)OC)c1cccc(Br)c1CO/N=C(\C)c1ccccc1 [reference compound]
Growth at 125 ppm (%) BOTRCI Use Ex. 6 [1]: 69%
Growth at 125 ppm (%) LEPTNO Use Ex. 9 [5]: 19%
Growth at 125 ppm (%) SCLESC Use Ex. 11 [11]: 39%

COC/C(=N\OCc1c(C)cccc1/C(=N\OC)C(=O)OC)c1ccc(F)cc1 [reference compound]
Growth (%) ALTESO Use ex. 5 [10]: 97%
Growth (%) SCLESC Use ex. 11 [11]: 89%
